Calls of active or inactive are those of the source.
What was measured:
[1] = target: 5-hydroxytryptamine receptor 1A (Homo sapiens, UniProt P08908); type: functional
14-3-3 protein gamma = 14-3-3 protein gamma (Homo sapiens, UniProt P61981); assay: modulators of 14-3-3 gamma client binding – dose response (AID 711); type: functional
Mucolipin-3 = Mucolipin-3 (Homo sapiens, UniProt Q8TDD5); assay: Dose response cell-based high-throughput screening assay for agonists of the transient receptor potential channel ML3 (TRPML3). [Related pubchem assays: 1526, 1424, 1448 ]; type: functional
Chain of Mucolipin-3 (Q8TDD5 whole entry): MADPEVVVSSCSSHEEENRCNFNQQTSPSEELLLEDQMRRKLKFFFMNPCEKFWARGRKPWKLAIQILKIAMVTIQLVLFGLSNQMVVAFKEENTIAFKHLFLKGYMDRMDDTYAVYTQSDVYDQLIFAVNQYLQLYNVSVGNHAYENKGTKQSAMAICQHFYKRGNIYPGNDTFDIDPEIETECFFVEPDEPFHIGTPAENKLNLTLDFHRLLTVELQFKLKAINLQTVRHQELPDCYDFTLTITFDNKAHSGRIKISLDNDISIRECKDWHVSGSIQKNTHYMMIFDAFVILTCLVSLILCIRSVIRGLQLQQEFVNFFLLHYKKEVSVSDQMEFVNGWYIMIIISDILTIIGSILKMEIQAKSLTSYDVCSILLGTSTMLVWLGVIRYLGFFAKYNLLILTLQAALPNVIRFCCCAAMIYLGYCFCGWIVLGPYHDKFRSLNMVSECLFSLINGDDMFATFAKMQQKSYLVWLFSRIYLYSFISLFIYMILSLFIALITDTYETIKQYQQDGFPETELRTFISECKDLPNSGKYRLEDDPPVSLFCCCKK

Ion channel NompC = Ion channel NompC (Danio rerio, UniProt Q7T1G6); assay: Fluorescence counterscreen assay for TRPML3 agonists: dose response cell-based high-throughput screening assay to identify agonists of the transient receptor potential channel N1 (TRPN1). [Related pubchem assays: 1526, 1424, 1448 ]; type: functional
Chain of Ion channel NompC (Q7T1G6 whole entry): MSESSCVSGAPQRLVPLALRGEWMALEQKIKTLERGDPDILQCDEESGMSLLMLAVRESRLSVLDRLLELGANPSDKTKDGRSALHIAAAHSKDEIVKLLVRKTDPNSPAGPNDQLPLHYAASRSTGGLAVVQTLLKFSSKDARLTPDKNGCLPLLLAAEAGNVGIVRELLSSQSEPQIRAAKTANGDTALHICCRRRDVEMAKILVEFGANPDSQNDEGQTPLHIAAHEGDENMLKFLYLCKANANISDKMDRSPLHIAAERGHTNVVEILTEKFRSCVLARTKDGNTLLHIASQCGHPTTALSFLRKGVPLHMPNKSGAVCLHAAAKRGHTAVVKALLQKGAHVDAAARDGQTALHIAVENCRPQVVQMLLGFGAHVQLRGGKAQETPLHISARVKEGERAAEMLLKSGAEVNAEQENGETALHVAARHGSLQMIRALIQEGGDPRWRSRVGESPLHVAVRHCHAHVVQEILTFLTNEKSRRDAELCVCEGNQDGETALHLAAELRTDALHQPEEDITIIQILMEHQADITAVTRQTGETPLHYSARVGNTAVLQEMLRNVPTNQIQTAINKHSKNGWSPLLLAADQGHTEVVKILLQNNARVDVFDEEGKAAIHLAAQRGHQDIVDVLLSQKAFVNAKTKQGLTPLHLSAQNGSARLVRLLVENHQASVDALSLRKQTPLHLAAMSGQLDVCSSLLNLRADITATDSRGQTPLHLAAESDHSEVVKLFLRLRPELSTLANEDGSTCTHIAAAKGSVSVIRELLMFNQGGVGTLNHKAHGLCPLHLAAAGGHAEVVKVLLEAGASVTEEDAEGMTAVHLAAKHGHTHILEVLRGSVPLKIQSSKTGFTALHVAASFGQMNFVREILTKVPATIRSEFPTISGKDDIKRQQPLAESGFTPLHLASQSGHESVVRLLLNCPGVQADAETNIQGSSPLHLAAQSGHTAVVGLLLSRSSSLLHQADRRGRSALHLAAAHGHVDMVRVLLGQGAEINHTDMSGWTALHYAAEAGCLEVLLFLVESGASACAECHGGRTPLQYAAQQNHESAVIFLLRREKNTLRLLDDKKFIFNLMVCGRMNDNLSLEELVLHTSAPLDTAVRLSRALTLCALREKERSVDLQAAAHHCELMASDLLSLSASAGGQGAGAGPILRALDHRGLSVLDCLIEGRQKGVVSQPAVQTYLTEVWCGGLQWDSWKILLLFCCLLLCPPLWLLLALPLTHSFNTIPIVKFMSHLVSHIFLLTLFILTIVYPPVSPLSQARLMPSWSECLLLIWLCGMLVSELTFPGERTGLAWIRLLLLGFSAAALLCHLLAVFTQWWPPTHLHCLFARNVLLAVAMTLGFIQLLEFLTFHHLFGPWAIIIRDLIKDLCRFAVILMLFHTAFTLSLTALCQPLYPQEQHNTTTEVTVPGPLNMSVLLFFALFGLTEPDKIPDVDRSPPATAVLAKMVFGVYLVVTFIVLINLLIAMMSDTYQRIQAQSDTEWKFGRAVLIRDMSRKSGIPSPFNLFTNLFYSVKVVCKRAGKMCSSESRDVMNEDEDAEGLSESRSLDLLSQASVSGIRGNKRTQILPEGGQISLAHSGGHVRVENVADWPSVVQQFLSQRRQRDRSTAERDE

[2] = target: Protein-tyrosine kinase 2-beta (Homo sapiens, UniProt Q14289);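 further: potency of inhibitors of PYK2 kinase phosphorylation of poly-GT substrate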
Chain of Protein-tyrosine kinase 2-beta (Q14289 whole entry): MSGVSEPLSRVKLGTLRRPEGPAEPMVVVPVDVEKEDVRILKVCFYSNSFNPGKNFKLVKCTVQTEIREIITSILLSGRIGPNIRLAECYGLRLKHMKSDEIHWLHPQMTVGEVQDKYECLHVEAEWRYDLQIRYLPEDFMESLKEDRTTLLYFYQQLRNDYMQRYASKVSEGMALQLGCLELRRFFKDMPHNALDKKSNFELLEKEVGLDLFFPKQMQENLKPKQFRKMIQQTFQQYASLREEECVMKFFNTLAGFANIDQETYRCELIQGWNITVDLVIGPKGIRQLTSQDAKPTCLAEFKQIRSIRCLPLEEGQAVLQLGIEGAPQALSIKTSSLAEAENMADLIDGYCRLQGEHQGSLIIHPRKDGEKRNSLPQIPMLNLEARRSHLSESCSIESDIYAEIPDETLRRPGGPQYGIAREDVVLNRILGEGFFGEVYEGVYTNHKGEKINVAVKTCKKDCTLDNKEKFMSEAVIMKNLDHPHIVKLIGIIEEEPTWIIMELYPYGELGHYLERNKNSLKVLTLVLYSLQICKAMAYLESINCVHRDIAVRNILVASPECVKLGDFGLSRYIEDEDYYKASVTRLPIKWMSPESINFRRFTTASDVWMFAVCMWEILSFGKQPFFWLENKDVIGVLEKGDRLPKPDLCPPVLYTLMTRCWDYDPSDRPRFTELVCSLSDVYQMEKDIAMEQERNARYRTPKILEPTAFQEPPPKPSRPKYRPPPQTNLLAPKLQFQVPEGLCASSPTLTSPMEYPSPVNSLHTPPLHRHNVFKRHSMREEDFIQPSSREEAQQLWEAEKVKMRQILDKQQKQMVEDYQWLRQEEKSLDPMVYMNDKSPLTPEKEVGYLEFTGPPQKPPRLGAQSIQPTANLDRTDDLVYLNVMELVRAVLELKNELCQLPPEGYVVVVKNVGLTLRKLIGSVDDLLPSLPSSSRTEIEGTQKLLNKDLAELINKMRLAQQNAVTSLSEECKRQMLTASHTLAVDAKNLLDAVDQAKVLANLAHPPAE

Bcl-2-related protein A1 [3] = target: T1, Bcl-2-related protein A1 (Mus musculus, UniProt Q07440); assay: Bfl-1 inhibitors blocking BH3 peptide binding, confirmation, biochemical, TR-FRET, mouse Bfl-1 (AID 621);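 further: TR-FRET binding of GST-Bfl-1 to FITC-labelled Bid peptide via terbium antibody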
T1 sequence (Q07440 whole entry): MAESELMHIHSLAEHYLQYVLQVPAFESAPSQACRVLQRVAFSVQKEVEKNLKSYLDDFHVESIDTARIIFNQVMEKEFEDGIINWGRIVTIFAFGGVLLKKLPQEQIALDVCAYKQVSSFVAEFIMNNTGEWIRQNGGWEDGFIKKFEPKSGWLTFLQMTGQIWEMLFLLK

Bcl-2-related protein A1 [4] = target: T1, Bcl-2-related protein A1; assay: Bfl-1 binding inhibitors, SAR follow-up, biochemical, fluorescence polarization (AID 1070)
Bcl-2-related protein A1 [5] = target: T1, Bcl-2-related protein A1; assay: Bfl-1 inhibitors, primary screen, biochemical, fluorescence polarization, FITC-Bid, mouse (AID 432)
Estrogen receptor = Estrogen receptor (Homo sapiens, UniProt P03372); assay: potentiators of ERα–SRC-1 coactivator binding, dose response, biochemical, TR-FRET, ERα LBD (AID 737)
Chain of Estrogen receptor (P03372 whole entry, the tested form may be a part): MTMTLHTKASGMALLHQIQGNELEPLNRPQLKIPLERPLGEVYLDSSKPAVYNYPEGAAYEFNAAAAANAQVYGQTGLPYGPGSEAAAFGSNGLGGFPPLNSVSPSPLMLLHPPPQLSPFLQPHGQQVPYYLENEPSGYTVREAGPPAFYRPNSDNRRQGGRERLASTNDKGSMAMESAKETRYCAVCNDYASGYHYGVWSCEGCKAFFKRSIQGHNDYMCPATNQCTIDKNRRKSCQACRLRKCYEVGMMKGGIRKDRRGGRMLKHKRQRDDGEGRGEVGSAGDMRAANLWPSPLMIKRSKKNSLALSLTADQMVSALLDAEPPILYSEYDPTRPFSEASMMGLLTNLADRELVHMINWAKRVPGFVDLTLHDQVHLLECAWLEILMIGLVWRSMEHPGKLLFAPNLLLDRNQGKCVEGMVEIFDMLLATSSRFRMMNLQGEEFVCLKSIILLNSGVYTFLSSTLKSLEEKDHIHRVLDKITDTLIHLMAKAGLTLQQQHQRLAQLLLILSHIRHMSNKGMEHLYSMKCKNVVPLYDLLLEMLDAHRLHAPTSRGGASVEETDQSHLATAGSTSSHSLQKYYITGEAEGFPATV

Chain of 14-3-3 protein gamma (P61981 whole entry): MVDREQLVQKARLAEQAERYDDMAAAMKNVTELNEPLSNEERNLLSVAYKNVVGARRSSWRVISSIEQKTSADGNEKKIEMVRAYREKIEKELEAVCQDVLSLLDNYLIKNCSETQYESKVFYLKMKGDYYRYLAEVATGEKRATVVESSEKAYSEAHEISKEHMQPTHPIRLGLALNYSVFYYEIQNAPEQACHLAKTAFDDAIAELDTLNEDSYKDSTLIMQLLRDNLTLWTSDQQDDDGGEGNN
Chain of 5-hydroxytryptamine receptor 1A (P08908 whole entry): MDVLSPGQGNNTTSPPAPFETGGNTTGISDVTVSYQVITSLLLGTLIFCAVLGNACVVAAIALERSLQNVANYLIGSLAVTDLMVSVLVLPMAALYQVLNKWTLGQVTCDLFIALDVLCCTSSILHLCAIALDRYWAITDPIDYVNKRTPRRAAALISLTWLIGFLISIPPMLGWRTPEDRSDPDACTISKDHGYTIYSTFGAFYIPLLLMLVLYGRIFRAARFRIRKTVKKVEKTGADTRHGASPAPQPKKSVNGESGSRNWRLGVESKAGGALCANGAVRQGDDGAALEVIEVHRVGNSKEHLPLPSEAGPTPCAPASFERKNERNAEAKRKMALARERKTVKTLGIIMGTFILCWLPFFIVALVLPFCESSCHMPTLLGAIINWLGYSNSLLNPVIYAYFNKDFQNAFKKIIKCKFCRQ

With `COC(=O)CC(=O)Cc1nc(N)nc(Nc2ccc(C)c(C)c2)n1` the EC50 [1] was > 50 µM (not active).

In the case of `CN1C(=O)C(Cc2c[nH]c3ccccc23)C(=O)N(C)C1=O`, the IC50 (14-3-3 protein gamma) is reported as > 50 µM (not active).

`Cc1ccc(S(=O)(=O)N(C)c2cc(S(=O)(=O)N3CCC(C)CC3)c(C)cc2C)cc1` was tested, and the EC50 (Mucolipin-3) was 2.06 µM (active) and the EC50 (Ion channel NompC) was > 29.9 µM (not active).

For `O=C(Oc1ccccc1)c1c(Cl)cccc1P(=O)(O)O`, the IC50 [2] was 6.43 µM (active).

For `Cc1ccc(-n2nnc(-c3cc4ccccc4nc3Cl)n2)cc1`, the IC50 (Bcl-2-related protein A1 [3]) was > 100 µM (not active) and the IC50 (Bcl-2-related protein A1 [4]) was > 100 µM (not active).

In the case of `Cc1cc(C)c2c3c(c(-c4ccccc4)n2n1)c(=O)n(C)c(=O)n3C`, the IC50 (Bcl-2-related protein A1 [5]) is reported as > 100 µM (not active) and the IC50 (Bcl-2-related protein A1 [3]) is reported as > 100 µM (not active).

With `COCCCn1c2nc3ccccc3nc2c2c(=O)n(-c3ccccc3OC)c(C)nc21` the EC50 (Estrogen receptor) was 12.7 µM (not active).
